Data from ChEMBL document CHEMBL6078680, “Improving the Stability and Anti-Infective Activity of Sea Turtle AMPs Using Multiple Structural Modification Strategies” (J Med Chem, 2024).
The source made the active and inactive calls. No cut-off for these calls is given here. Starred links: 1 amine or outer side, 2 acyl side, 3 side chain; linkers in the order of their positions; H or OH if unused. Positions of bridges follow the written chain, without caps; N, C: chain ends. Non-standard residues stand in square brackets, D forms with d. Residues, ends and D or L forms follow the SMILES beside them. X2 = C[C@](CCCCCCCC=[*:3])(N[*:1])C(=O)[*:2]; X1 = C[C@@](CCCCC=[*:3])(N[*:1])C(=O)[*:2]

Assays:
4T1 = test: Cytotoxicity against mouse 4T1 cells assessed as survival rate at 100 microg/ml; format: functional; details: read-out: Survival
Peritoneal macrophage [1] = test: Antiinflammatory activity in mouse Peritoneal macrophage cells assessed as inhibition of LPS-induced TNF-alpha production at 20 microg/ml incubated for 6 hrs by ELISA analysis; format: functional, cell-based; details: dose 20.0 µg/ml
Peritoneal macrophage [2] = test: Antiinflammatory activity in mouse Peritoneal macrophage cells assessed as inhibition of LPS-induced IL-6 production at 20 microg/ml incubated for 6 hrs by ELISA analysis; format: functional, cell-based; details: dose 20.0 µg/ml
Peritoneal macrophage [3] = test: Cytotoxicity against mouse Peritoneal macrophage cells assessed as decrease in cell number at 20 microg/ml; format: functional, cell-based; details: dose 20.0 µg/ml
Staphylococcus aureus = test: Antimicrobial activity against Staphylococcus aureus CMCC 26003 at 5 times MIC measured at 180 mins; format: functional, organism-based
B16-F10 = test: Cytotoxicity against mouse B16-F10 cells assessed as survival rate at 100 microg/ml; format: functional; details: read-out: Survival
Peritoneal macrophage [4] = test: Cytotoxicity against mouse Peritoneal macrophage cells assessed as survival rate at 100 microg/ml; format: functional; details: read-out: Survival
HaCaT = test: Cytotoxicity against human HaCaT cells assessed as survival rate at 100 microg/ml; format: functional; details: read-out: Survival
[5] = Hemolytic activity at human Erythrocyte assessed as hemolysis at 100 microg/ml; format: toxicity, cell-based; details: erythrocytes, at 100 µg/mL, read-out: Activity

Molecule | viability at 100 µg/mL (4T1) | Activity (Peritoneal macrophage [1]) | Activity (Peritoneal macrophage [2]) | Activity (Peritoneal macrophage [3]) | Activity (Staphylococcus aureus) | viability at 100 µg/mL (B16-F10) | viability at 100 µg/mL (Peritoneal macrophage [4]) | viability at 100 µg/mL (HaCaT) | hemolysis at 100 microg/ml [5]
H-RFFKKVRKQLGRVLRHSRITVGGRMRF-OH | < 40% | Active | Active | Active | inactive |  |  |  | 
H-RRSRFGRFFKKVRKQLGRVLRHSRITVGG-NH2 | < 40% | Active | Active | Active | inactive | < 40% | 80% | 80% | 
CC[C@H](C)[C@H](NC(=O)[C@H](CCCNC(=N)N)NC(=O)[C@H](CO)NC(=O)[C@H](Cc1c[nH]cn1)NC(=O)[C@]1(C)CCCC/C=C\CCCCCCC[C@@](C)(NC(=O)[C@H](CCCNC(=N)N)NC(=O)[C@@H](NC(=O)[C@H](CCCCN)NC(=O)[C@H](CCCCN)NC(=O)[C@@H](N)Cc2ccccc2)C(C)C)C(=O)N[C@@H](CCC(N)=O)C(=O)N[C@@H](CC(C)C)C(=O)NCC(=O)N[C@@H](CCCNC(=N)N)C(=O)N[C@@H](C(C)C)C(=O)N[C@@H](CC(C)C)C(=O)N1)C(=O)N[C@H](C(=O)N[C@H](C(=O)NCC(=O)NCC(=O)N[C@@H](CCCNC(=N)N)C(=O)N[C@@H](CCSC)C(=O)N[C@@H](CCCNC(=N)N)C(=O)N[C@@H](Cc1ccccc1)C(=O)O)C(C)C)[C@@H](C)O (H-FKKVR[X2]QLGRVL[X1]HSRITVGGRMRF-OH; staple (Z) 6-13) |  | Active | Active |  | inactive |  |  |  | < 5%
CC[C@H](C)[C@H](NC(=O)[C@H](CCCNC(=N)N)NC(=O)[C@H](CO)NC(=O)[C@H](Cc1c[nH]cn1)NC(=O)[C@H](CCCNC(=N)N)NC(=O)[C@H](CC(C)C)NC(=O)[C@@H](NC(=O)[C@@H]1CSSC[C@H](NC(=O)[C@@H](NC(=O)[C@H](CCCCN)NC(=O)[C@H](CCCCN)NC(=O)[C@@H](N)Cc2ccccc2)C(C)C)C(=O)N[C@@H](CCCNC(=N)N)C(=O)N[C@@H](CCCCN)C(=O)N[C@@H](CCC(N)=O)C(=O)N[C@@H](CC(C)C)C(=O)NCC(=O)N[C@@H](CCCNC(=N)N)C(=O)N1)C(C)C)C(=O)N[C@H](C(=O)N[C@H](C(=O)NCC(=O)NCC(=O)N[C@@H](CCCNC(=N)N)C(=O)N[C@@H](CCSC)C(=O)N[C@@H](CCCNC(=N)N)C(=O)N[C@@H](Cc1ccccc1)C(=O)O)C(C)C)[C@@H](C)O (H-FKKVCRKQLGRCVLRHSRITVGGRMRF-OH; disulfide 5-12) |  | Active | Active |  | inactive |  | > 80% | > 80% | < 5%
H-RRSRFGRFFKKVRKQLGRV-NH2 | < 40% |  |  |  | inactive | < 40% | 80% | 80% | 
H-RRSRFGRFFKKVRKQLGRVLRHSRITVGGRMRF-OH |  |  |  |  | inactive |  |  |  | 
CC[C@H](C)[C@H](NC(=O)[C@H](CCCNC(=N)N)NC(=O)[C@H](CO)NC(=O)[C@H](Cc1c[nH]cn1)NC(=O)[C@H](CCCNC(=N)N)NC(=O)[C@]1(C)CCCC/C=C\CCCC[C@](C)(NC(=O)[C@H](CCC(N)=O)NC(=O)[C@H](CCCCN)NC(=O)[C@H](CCCNC(=N)N)NC(=O)[C@@H](NC(=O)[C@H](CCCCN)NC(=O)[C@H](CCCCN)NC(=O)[C@@H](N)Cc2ccccc2)C(C)C)C(=O)NCC(=O)N[C@@H](CCCNC(=N)N)C(=O)N[C@@H](C(C)C)C(=O)N1)C(=O)N[C@H](C(=O)N[C@H](C(=O)NCC(=O)NCC(=O)N[C@@H](CCCNC(=N)N)C(=O)N[C@@H](CCSC)C(=O)N[C@@H](CCCNC(=N)N)C(=O)N[C@@H](Cc1ccccc1)C(=O)O)C(C)C)[C@@H](C)O (H-FKKVRKQ[X1]GRV[X1]RHSRITVGGRMRF-OH; staple (Z) 8-12) |  | Active | Active |  | inactive |  |  |  | < 5%
H-RRSRFGRFFKKVRKQLGRVLRHSRITV-NH2 | < 40% | Active | Active | Active | inactive | < 40% | 80% | 80% | 
H-GRVLRHSRITVGGRMRF-OH |  |  |  |  | inactive |  |  |  | 
H-RRSRFGRFFKKVRKQLGRVLRHS-NH2 | < 40% | Active | Active | Active | inactive | < 40% | 80% | 80% | 
H-RRSRFGRFFKKVRKQ-NH2 |  |  |  |  | inactive |  |  |  | 
CC[C@H](C)[C@H](NC(=O)[C@H](CCCNC(=N)N)NC(=O)[C@H](CO)NC(=O)[C@H](Cc1c[nH]cn1)NC(=O)[C@H](CCCNC(=N)N)NC(=O)[C@H](CC(C)C)NC(=O)[C@@H](NC(=O)[C@H](CCCNC(=N)N)NC(=O)CNC(=O)[C@]1(C)CCCC/C=C\CCCC[C@](C)(NC(=O)[C@H](CCCCN)NC(=O)[C@H](CCCCN)NC(=O)[C@@H](N)Cc2ccccc2)C(=O)N[C@@H](CCCNC(=N)N)C(=O)N[C@@H](CCCCN)C(=O)N[C@@H](CCC(N)=O)C(=O)N1)C(C)C)C(=O)N[C@H](C(=O)N[C@H](C(=O)NCC(=O)NCC(=O)N[C@@H](CCCNC(=N)N)C(=O)N[C@@H](CCSC)C(=O)N[C@@H](CCCNC(=N)N)C(=O)N[C@@H](Cc1ccccc1)C(=O)O)C(C)C)[C@@H](C)O (H-FKK[X1]RKQ[X1]GRVLRHSRITVGGRMRF-OH; staple (Z) 4-8) |  | Active | Active |  | inactive |  |  |  | < 5%
H-SRFGRFFKKVRKQLGRVLRHSRITVGGRMRF-OH | < 40% | Active | Active | Active | inactive |  |  |  | 
H-RRSRFGRFFKKVRKQLG-NH2 | < 40% |  |  |  | inactive | < 40% | 80% | 80% | 
H-RHSRITVGGRMRF-OH |  |  |  |  | inactive |  |  |  | 
H-FGRFFKKVRKQLGRVLRHSRITVGGRMRF-OH | < 40% | Active | Active | Active | inactive |  |  |  | 
H-QLGRVLRHSRITVGGRMRF-OH |  |  |  |  | inactive |  |  |  | 
H-RKQLGRVLRHSRITVGGRMRF-OH |  |  |  |  | inactive |  |  |  | 
CC[C@H](C)[C@@H]1NC(=O)[C@H](CCCNC(=N)N)NC(=O)[C@H](CO)NC(=O)[C@H](Cc2c[nH]cn2)NC(=O)[C@H](CCCNC(=N)N)NC(=O)[C@H](CC(C)C)NC(=O)[C@H](C(C)C)NC(=O)[C@H](CCCNC(=N)N)NC(=O)CNC(=O)[C@H](CC(C)C)NC(=O)[C@H](CCC(N)=O)NC(=O)[C@H](CCCCN)NC(=O)[C@H](CCCNC(=N)N)NC(=O)[C@H](C(C)C)NC(=O)[C@H](CCCCN)NC(=O)[C@H](CCCCN)NC(=O)[C@H](Cc2ccccc2)NC(=O)[C@@H](N)CSSC[C@@H](C(=O)O)NC(=O)[C@H](Cc2ccccc2)NC(=O)[C@H](CCCNC(=N)N)NC(=O)[C@H](CCSC)NC(=O)[C@H](CCCNC(=N)N)NC(=O)CNC(=O)CNC(=O)[C@H](C(C)C)NC(=O)[C@H]([C@@H](C)O)NC1=O (H-CFKKVRKQLGRVLRHSRITVGGRMRFC-OH; disulfide 1-27) |  | Active | Active |  | inactive |  | > 80% | > 80% | < 5%
H-RRSRFGRFFKKVRKQLGRVLRHSRITVGGRM-NH2 | < 40% | Active | Active | Active | inactive | < 40% | 80% | 80% | 
H-KVRKQLGRVLRHSRITVGGRMRF-OH |  |  |  |  | inactive |  |  |  | 
H-VLRHSRITVGGRMRF-OH |  |  |  |  | inactive |  |  |  | 
CC[C@H](C)[C@H](NC(=O)[C@H](CCCNC(=N)N)NC(=O)[C@H](CO)NC(=O)[C@H](Cc1c[nH]cn1)NC(=O)[C@H](CCCNC(=N)N)NC(=O)[C@H](CC(C)C)NC(=O)[C@@H](NC(=O)[C@H](CCCNC(=N)N)NC(=O)CNC(=O)[C@H](CC(C)C)NC(=O)[C@H](CCC(N)=O)NC(=O)[C@]1(C)CCCC/C=C\CCCC[C@](C)(NC(=O)[C@@H](N)Cc2ccccc2)C(=O)N[C@@H](CCCCN)C(=O)N[C@@H](C(C)C)C(=O)N[C@@H](CCCNC(=N)N)C(=O)N1)C(C)C)C(=O)N[C@H](C(=O)N[C@H](C(=O)NCC(=O)NCC(=O)N[C@@H](CCCNC(=N)N)C(=O)N[C@@H](CCSC)C(=O)N[C@@H](CCCNC(=N)N)C(=O)N[C@@H](Cc1ccccc1)C(=O)O)C(C)C)[C@@H](C)O (H-F[X1]KVR[X1]QLGRVLRHSRITVGGRMRF-OH; staple (Z) 2-6) |  | Active | Active |  | inactive |  |  |  | < 5%
H-RRSRFGRFFKKVR-NH2 |  |  |  |  | inactive |  |  |  | 
CC[C@H](C)[C@H](NC(=O)[C@H](CCCNC(=N)N)NC(=O)[C@H](CO)NC(=O)[C@H](Cc1c[nH]cn1)NC(=O)[C@H](CCCNC(=N)N)NC(=O)[C@H](CC(C)C)NC(=O)[C@@H](NC(=O)[C@H](CCCNC(=N)N)NC(=O)CNC(=O)[C@]1(C)CCCC/C=C\CCCCCCC[C@@](C)(N)C(=O)N[C@@H](CCCCN)C(=O)N[C@@H](CCCCN)C(=O)N[C@@H](C(C)C)C(=O)N[C@@H](CCCNC(=N)N)C(=O)N[C@@H](CCCCN)C(=O)N[C@@H](CCC(N)=O)C(=O)N1)C(C)C)C(=O)N[C@H](C(=O)N[C@H](C(=O)NCC(=O)NCC(=O)N[C@@H](CCCNC(=N)N)C(=O)N[C@@H](CCSC)C(=O)N[C@@H](CCCNC(=N)N)C(=O)N[C@@H](Cc1ccccc1)C(=O)O)C(C)C)[C@@H](C)O (H-[X2]KKVRKQ[X1]GRVLRHSRITVGGRMRF-OH; staple (Z) 1-8) |  | Active | Active |  | inactive |  |  |  | < 5%
